EC50 data for 26 compounds are collected here from US20240294508A1, “RIP1 MODULATORS INCLUDING AZETIDINE CYCLIC UREAS, PREPARATIONS, AND USES THEREOF” (SIRONAX LTD., priority 2021, published 2024).

The test system of this experiment is HT-29 cells. The experiment in a line: HT29 cells 0FBS assay in vitro: TNF-α/SMAC mimetic/zVAD-FMK induced necroptosis, CellTiter-Glo cell viability (RIP1 inhibitory activity). The experiment is classed as cell-based. The conditions noted are these: Homo sapiens, FBS free medium, TNF-α (10 ng/ml) + SMAC mimetic (6 uM) + zVAD-FMK (10 μM), 20 hours, geometric mean EC50. Summed up:
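Luminescent ATP read-out (CellTiter-Glo) gave viability of HT-29 cells after 20 h at 37° C in serum-free medium containing compound and a necroptosis cocktail of 10 ng/ml TNF-α, 6 uM SMAC mimetic and 10 μM zVAD-FMK. EC50s are geometric means of 10-point curves run in duplicate.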
(In general: In ATP-based viability assays light output follows the ATP content of the culture.)
For `Cc1c(Cl)nn(C)c1-c1cc(OC2CN(C(=O)N3N=CC[C@H]3c3cc(F)cc(C#N)c3)C2)c(F)cn1` [Compound 50, (S)-3-(1-(3-((2-(3-chloro-1,4-dimethyl-1H-pyrazol-5-yl)-5-fluoropyridin-4-yl)oxy)azetidine-1-carbonyl)-4,5-dihydro-1H-pyrazol-5-yl)-5-fluoro benzonitrile], the EC50 (in general, the concentration needed to bring the measured effect to its halfway point) is 0.1 to 100 nM.

Take `Cc1cnn(C)c1-c1cc(OC2CN(C(=O)N3N=CCC3c3cncs3)C2)c(F)cn1` (centres unmarked) [Compound 91, (3-((2-(1,4-dimethyl-1H-pyrazol-5-yl)-5-fluoropyridin-4-yl)oxy)azetidin-1-yl)(5-(thiazol-5-yl)-4,5-dihydro-1H-pyrazol-1-yl)methanone]: the EC50 lay in the range of 0.1 to 100 nM.

Regarding `Cc1c(N)nn(C)c1-c1cc(OC2CN(C(=O)N3N=CC[C@H]3c3cc(F)cc(C#N)c3)C2)c(F)cn1` [Compound 49, (S)-3-(1-(3-((2-(3-amino-1,4-dimethyl-1H-pyrazol-5-yl)-5-fluoropyridin-4-yl)oxy)azetidine-1-carbonyl)-4,5-dihydro-1H-pyrazol-5-yl)-5-fluoro benzonitrile], the concentration giving a half-maximal response (EC50) is 0.1 to 100 nM.

For the compound `Cc1ccn(C)c(=O)c1-c1cc(OC2CN(C(=O)N3N=CC[C@H]3c3cc(F)cc(F)c3)C2)c(F)cn1` [Compound 168, (S)-4-((1-(5-(3,5-difluorophenyl)-4,5-dihydro-1H-pyrazole-1-carbonyl)azetidin-3-yl)oxy)-5-fluoro-1′,4′-dimethyl-[2,3′-bipyridin]-2′(1′H)-one], the EC50 fell in the range of 1000 to 10000 nM.

As to `Cn1nccc1-c1csc(OC2CN(C(=O)N3N=CC[C@H]3c3cc(F)cc(F)c3)C2)n1` [Compound 147, (S)-(5-(3,5-difluorophenyl)-4,5-dihydro-1H-pyrazol-1-yl)(3-((4-(1-methyl-1H-pyrazol-5-yl)thiazol-2-yl)oxy)azetidin-1-yl)methanone], the 50% effective concentration (EC50) is 0.1 to 100 nM.

For the compound `Cc1noc(C)c1-c1ncc(F)c(OC2CN(C(=O)N3N=CC[C@H]3c3cncc(F)c3)C2)n1` [Compound 4, (S)-(3-((2-(3,5-dimethylisoxazol-4-yl)-5-fluoropyrimidin-4-yl)oxy)azetidin-1-yl)(5-(5-fluoropyridin-3-yl)-4,5-dihydro-1H-pyrazol-1-yl)methanone], the EC50 lay in the range of 0.1 to 100 nM.

As for `Cc1ncsc1-c1cc(OC2CN(C(=O)N3N=CC[C@H]3c3cncc(F)c3)C2)c(F)cn1` [Compound 64, (S)-(3-((5-fluoro-2-(4-methylthiazol-5-yl)pyridin-4-yl)oxy)azetidin-1-yl)(5-(5-fluoropyridin-3-yl)-4,5-dihydro-1H-pyrazol-1-yl)methanone], the EC50 is 0.1 to 100 nM.

For `CCn1nc(C)c(-c2cc(OC3CN(C(=O)N4N=CC[C@H]4c4cc(F)cc(C#N)c4)C3)c(F)cn2)c1C` [Compound 52, (S)-3-(1-(3-((2-(1-ethyl-3,5-dimethyl-1H-pyrazol-4-yl)-5-fluoropyridin-4-yl)oxy)azetidine-1-carbonyl)-4,5-dihydro-1H-pyrazol-5-yl)-5-fluorobenzonitrile], the EC50 was in the range of 0.1 to 100 nM.

For `Cc1cc(F)cc([C@@H]2CC=NN2C(=O)N2CC(Oc3cc(-n4nc(C)c(C(N)=O)c4C)ncc3F)C2)c1` [Compound 135, (S)-1-(5-fluoro-4-((1-(5-(3-fluoro-5-methylphenyl)-4,5-dihydro-1H-pyrazole-1-carbonyl)azetidin-3-yl)oxy)pyridin-2-yl)-3,5-dimethyl-1H-pyrazole-4-carboxamide], the EC50 fell in the range of 0.1 to 100 nM.

Turning to `Cc1ncc([C@@H]2CC=NN2C(=O)N2CC(Oc3cc(-c4c(C)cnn4C)ncc3F)C2)s1` [Compound 108, (S)-(3-((2-(1,4-dimethyl-1H-pyrazol-5-yl)-5-fluoropyridin-4-yl)oxy)azetidin-1-yl)(5-(2-methylthiazol-5-yl)-4,5-dihydro-1H-pyrazol-1-yl)methanone], the concentration giving a half-maximal response (EC50) lay within 0.1 to 100 nM.

On to `CNC(=O)c1c(C)nn(-c2cc(OC3CN(C(=O)N4N=CC[C@H]4c4cc(F)cc(C#N)c4)C3)c(F)cn2)c1C` [Compound 80, (S)-1-(4-((1-(5-(3-cyano-5-fluorophenyl)-4,5-dihydro-1H-pyrazole-1-carbonyl)azetidin-3-yl)oxy)-5-fluoropyridin-2-yl)-N,3,5-trimethyl-1H-pyrazole-4-carboxamide], for which the EC50 was 0.1 to 100 nM.

In the case of `Cc1cnn(C)c1-c1cc(OC2CN(C(=O)N3N=CCC3c3cscn3)C2)c(F)cn1` (centres unmarked) [Compound 95, (3-((2-(1,4-dimethyl-1H-pyrazol-5-yl)-5-fluoropyridin-4-yl)oxy)azetidin-1-yl)(5-(thiazol-4-yl)-4,5-dihydro-1H-pyrazol-1-yl)methanone], the EC50 is 0.1 to 100 nM.

For `CCS(=O)(=O)c1c(C)nn(-c2cc(OC3CN(C(=O)N4N=CC[C@H]4c4cc(F)cc(C#N)c4)C3)c(F)cn2)c1C` [Compound 48, (S)-3-(1-(3-((2-(4-(ethylsulfonyl)-3,5-dimethyl-1H-pyrazol-1-yl)-5-fluoropyridin-4-yl)oxy)azetidine-1-carbonyl)-4,5-dihydro-1H-pyrazol-5-yl)-5-fluorobenzonitrile], the EC50 was 0.1 to 100 nM.

As for `COc1nccc(C)c1-c1cc(OC2CN(C(=O)N3N=CC[C@H]3c3cc(F)cc(F)c3)C2)c(F)cn1` [Compound 165, (S)-(5-(3,5-difluorophenyl)-4,5-dihydro-1H-pyrazol-1-yl)(3-((5-fluoro-2′-methoxy-4′-methyl-[2,3′-bipyridin]-4-yl)oxy)azetidin-1-yl)methanone], the half-maximal effective concentration (EC50) is 100 to 1000 nM.

Consider `Cn1nc(N)cc1-c1cc(OC2CN(C(=O)N3N=CC[C@H]3c3cc(F)cc(C#N)c3)C2)c(F)cn1` [Compound 35, (S)-3-(1-(3-((2-(3-amino-1-methyl-1H-pyrazol-5-yl)-5-fluoropyridin-4-yl)oxy)azetidine-1-carbonyl)-4,5-dihydro-1H-pyrazol-5-yl)-5-fluorobenzonitrile], for which the 50% effective concentration (EC50) was in the range of 0.1 to 100 nM.

For `Cc1nc(C)c(C2CC=NN2C(=O)N2CC(Oc3cc(-c4c(C)cnn4C)ncc3F)C2)s1` (centres unmarked) [Compound 119, (3-((2-(1,4-dimethyl-1H-pyrazol-5-yl)-5-fluoropyridin-4-yl)oxy)azetidin-1-yl)(5-(2,4-dimethylthiazol-5-yl)-4,5-dihydro-1H-pyrazol-1-yl)methanone], the concentration for a half-maximal effect (EC50) is 100 to 1000 nM.

For the compound `Cc1noc(C)c1-c1ncc(F)c(OC2CN(C(=O)N3N=CC[C@H]3c3cc(F)cc(C#N)c3)C2)n1` [Compound 3, (S)-3-(1-(3-((2-(3,5-dimethylisoxazol-4-yl)-5-fluoropyrimidin-4-yl)oxy)azetidine-1-carbonyl)-4,5-dihydro-1H-pyrazol-5-yl)-5-fluorobenzonitrile], the concentration for a half-maximal effect (EC50) was in the range of 0.1 to 100 nM.

On to `Cn1ncc(C#N)c1-c1ccc(F)c(OC2CN(C(=O)N3N=CC[C@H]3c3cc(F)cc(C#N)c3)C2)n1` [Compound 40, (S)-5-(6-((1-(5-(3-cyano-5-fluorophenyl)-4,5-dihydro-1H-pyrazole-1-carbonyl)azetidin-3-yl)oxy)-5-fluoropyridin-2-yl)-1-methyl-1H-pyrazole-4-carbonitrile], for which the EC50 was in the range of 0.1 to 100 nM.

As to `Cc1cnn(C)c1-c1cc(OC2CN(C(=O)N3N=CCC3c3ccn(C)c3)C2)c(F)cn1` (centres unmarked) [Compound 145, (3-((2-(1,4-dimethyl-1H-pyrazol-5-yl)-5-fluoropyridin-4-yl)oxy)azetidin-1-yl)(5-(1-methyl-1H-pyrrol-3-yl)-4,5-dihydro-1H-pyrazol-1-yl)methanone], the EC50 lay within 0.1 to 100 nM.

Consider `Cc1ncc(C2CC=NN2C(=O)N2CC(Oc3cc(-c4c(C)c(N)nn4C)ncc3F)C2)s1` (centres unmarked) [Compound 107, (3-((2-(3-amino-1,4-dimethyl-1H-pyrazol-5-yl)-5-fluoropyridin-4-yl)oxy)azetidin-1-yl)(5-(2-methylthiazol-5-yl)-4,5-dihydro-1H-pyrazol-1-yl) methanone], for which the concentration for a half-maximal effect (EC50) lay within 0.1 to 100 nM.

For the compound `Cc1nc(C2CC=NN2C(=O)N2CC(Oc3cc(-c4c(C)cnn4C)c(F)cc3F)C2)cs1` (centres unmarked) [Compound 131, (3-(5-(1,4-dimethyl-1H-pyrazol-5-yl)-2,4-difluorophenoxy)azetidin-1-yl)(5-(2-methylthiazol-4-yl)-4,5-dihydro-1H-pyrazol-1-yl)methanone], the EC50 is 0.1 to 100 nM.

For `Cn1ncc(Cl)c1-c1cc(OC2CN(C(=O)N3N=CC[C@H]3c3cncc(F)c3)C2)c(F)cn1` [Compound 43, (S)-(3-((2-(4-chloro-1-methyl-1H-pyrazol-5-yl)-5-fluoropyridin-4-yl)oxy)azetidin-1-yl)(5-(5-fluoropyridin-3-yl)-4,5-dihydro-1H-pyrazol-1-yl) methanone], the EC50 was 0.1 to 100 nM.

Regarding `Cn1ncc(F)c1-c1cc(OC2CN(C(=O)N3N=CC[C@H]3c3cncc(C#N)c3)C2)c(F)cn1` [Compound 46, (S)-5-(1-(3-((5-fluoro-2-(4-fluoro-1-methyl-1H-pyrazol-5-yl)pyridin-4-yl)oxy)azetidine-1-carbonyl)-4,5-dihydro-1H-pyrazol-5-yl)nicotinonitrile], the EC50 was in the range of 0.1 to 100 nM.

As for `Cc1nc([C@H]2CC=NN2C(=O)N2CC(Oc3cc(-c4c(C)cnn4C)ncc3F)C2)cs1` [Compound 121, (R)-(3-((2-(1,4-dimethyl-1H-pyrazol-5-yl)-5-fluoropyridin-4-yl)oxy)azetidin-1-yl)(5-(2-methylthiazol-4-yl)-4,5-dihydro-1H-pyrazol-1-yl)methanone], the EC50 fell in the range of 1000 to 10000 nM.

Regarding `Cc1cc(F)cc(C2CC=NN2C(=O)N2CC(Oc3cc(-c4c(C)cnn4C)ncc3F)C2)c1` (centres unmarked) [Compound 130, (3-((2-(1,4-dimethyl-1H-pyrazol-5-yl)-5-fluoropyridin-4-yl)oxy)azetidin-1-yl)(5-(3-fluoro-5-methylphenyl)-4,5-dihydro-1H-pyrazol-1-yl)methanone], the 50% effective concentration (EC50) is 0.1 to 100 nM.

Turning to `Cc1cnn(C)c1-c1nc(OC2CN(C(=O)N3N=CC[C@H]3c3cc(F)cc(F)c3)C2)sc1Cl` [Compound 149, (S)-(3-((5-chloro-4-(1,4-dimethyl-1H-pyrazol-5-yl)thiazol-2-yl)oxy)azetidin-1-yl)(5-(3,5-difluorophenyl)-4,5-dihydro-1H-pyrazol-1-yl)methanone], the EC50 lay in the range of 0.1 to 100 nM.
